The text below walks through data of BindingDB's records for doi:10.1016/j.ejmech.2013.03.032 (University of Messina, 2013).

In the experiment the target is T1, Proteasome subunit beta type-1 (Homo sapiens, UniProt P20618).
T1 sequence (P20618 whole entry): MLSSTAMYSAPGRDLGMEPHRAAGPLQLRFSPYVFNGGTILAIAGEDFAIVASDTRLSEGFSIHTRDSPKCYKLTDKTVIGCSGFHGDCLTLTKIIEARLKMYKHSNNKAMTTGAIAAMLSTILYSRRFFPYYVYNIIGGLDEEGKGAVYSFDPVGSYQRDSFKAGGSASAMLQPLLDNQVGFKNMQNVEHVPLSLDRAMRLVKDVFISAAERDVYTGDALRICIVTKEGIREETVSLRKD
Put plainly: Inhibition of human 20S proteasome post-glutamyl peptide hydrolyzing activity using Z-Leu-Leu-Glu-AMC as substrate measured over 10 mins by fluorescence assay.
In the case of `CC(C)C[C@H](NC(=O)Cn1ccc2c(c1=O)CCCN2C)B(O)O`, the Ki stood at 3.9 µM.
In the case of `CC(C)C[C@H](NC(=O)[C@H](C)n1ccc2ncccc2c1=O)B(O)O`, the inhibitory constant (Ki) worked out at 13.6 µM.
Consider `CC(C)C[C@H](NC(=O)Cn1ccc(Nc2ccccc2)cc1=O)B(O)O`, for which the inhibition constant Ki stood at 5.14 µM.
`CC(C)C[C@H](NC(=O)Cn1ccc(N2CCCCC2)cc1=O)B(O)O` had an inhibitory constant (Ki) of 1.42 µM.
As for `CC(C)C[C@H](NC(=O)Cn1ccc(N2CCOCC2)cc1=O)B(O)O`, the affinity corresponds to a Ki of 0.52 µM.
With `CCN(CC)c1ccn(CC(=O)N[C@@H](CC(C)C)B(O)O)c(=O)c1`, the Ki worked out at 4.42 µM.
`CC(C)C[C@H](NC(=O)Cn1ccccc1=O)B(O)O` had an inhibition constant Ki of 1.38 µM.
